Where a SMILES comes first, the peptide text is derived from it. Side-chain parts run from the residue outwards. [ ]: non-standard residue; d: D form. The star is where a group is joined. DM1Mal(CH2)2CO = COc1cc2cc(c1Cl)N(C)C(=O)C[C@H](OC(=O)[C@H](C)N(C)C(=O)CCSC1CC(=O)N(CCC(=O)*)C1=O)[C@]1(C)O[C@H]1[C@H](C)[C@@H]1C[C@@](O)(NC(=O)O1)[C@H](OC)/C=C/C=C(\C)C2; X1 = CC(=O)N[C@@H](CSC1CC(=O)N(CCC(=O)*)C1=O)C(=O)O; Dolaproine = CO[C@@H]([C@@H]1CCCN1)[C@@H](C)C(=O)O; Dil = CC[C@H](C)[C@H](NC)[C@@H](CC(=O)O)OC; NMe2Val = CC(C)[C@@H](C(=O)*)N(C)C; PEG5 = NCCOCCOCCOCCOCCOCCC(=O)O; Cit = NC(=O)NCCC[C@H](N)C(=O)O; PEG4 = NCCOCCOCCOCCOCCC(=O)O
Key:
Cathepsin B = target: T1, Cathepsin B (Homo sapiens, UniProt P07858); assay: Cat B-induced cleavage study (in vitro enzymatic cleavage assay, UHPLC-MS/MS); format: biochemical; conditions: for Ratio (T1/2 Compound/T1/2 Reference): reference: Cys-MC-Val-Cit-PABC-MMAF; for half-life at 10 μM: human, recombinant human Cathepsin B, 10 μM compound, Cathepsin B 2 μg/mL, 25 mM MES buffer pH 5.0, 37° C., read-out: T1/2 Compound
T1 construct: purchased R&D Systems, Bio-Techne AG 953-CY-010
Procedure: (§1) The propensity of compounds 1-13 to be cleaved by Cathepsin B—was evaluated according to an in vitro enzymatic cleavage assay using recombinant human Cathepsin B and UHPLC-MS/MS analysis as described below.
(§2) Reference compounds Cys-MC-Val-Cit-PABC-MMAF and MMAF were used as positive controls. The enzyme was reconstituted in 25 mM MES buffer adjusted at pH 5.0 with a 1M NaOH solution and then activated with a […] solution of DDT at room temperature for at least 15 min.
(§3) The in vitro enzymatic assay was conducted at 37° C. with the test compounds at a concentration of 10 μM (2.5 μM when the test compound is an antibody-drug conjugate) in the presence of activated recombinant human Cathepsin B enzyme at 2 μg/mL in a 25 mM MES buffer pH 5.0. The enzymatic cleavage reaction was stopped for each defined time point by mixing an equal volume of acetonitrile+0.1% FA containing an internal standard (warfarine at 8 μM).
(§4) Analysis was conducted using a Waters Acquity UPLC System coupled to a Waters Xevo TQ triple quad mass spectrometer. UHPLC was conducted depending on the test compounds with a BEH C8 1.7 μm 100×2.1 mm or BEH C18 1.7 μm 50×2.1 mm or HSS T3 1.7 μm 50×2.1 mm columns heated at 45° C. or 50° C. and fitted with 2 μm insert filter pre-columns (available from Waters), and solvent systems A1 (H2O+0.1% FA) and B1 (acetonitrile+0.1% FA) at a flow rate of 0.6 mL/min and a 10-95% gradient of B1 over 1.9 min.
(§5) MS/MS was performed using electrospray ionization (ESI) interface in positive mode and specific MRM transitions for each tested compound.

[1] = target: T2, Cathepsin B (exo-Cat B cleavage) (Homo sapiens, UniProt P07858); assay: as above; format: biochemical; conditions: human, recombinant human Cathepsin B, pH 5; read-out: T1/2 (cleavage by exo-Cat B)
T2 construct: purchased R&D Systems, Bio-Techne AG 953-CY-010
Procedure: as §1, §2, §3, §4, §5

[2] = DRF toxicity study of DM1-Ac-Cit and DM1-Ac-Cit-Lys(Cys-ma-Lys(PEG16))-Tyr-OH, 2 intravenous bolus injections (Day 1 and Day 8), female mice; format: in vivo, mouse; conditions: for related mortalities, clinical observations or effects on body weights and food consumption / related ophthalmic findings or changes in clinical pathology parameters / related organ weight changes, macroscopic and microscopic findings: DM1-Ac-Cit 0.15, 0.68 or 1.4 mg/kg/adm, DM1-Ac-Cit-Lys(Cys-ma-Lys(PEG16))-Tyr-OH 3.5 mg/kg/adm, 2 i.v. injections
Procedure: The objectives of this study were to determine the potential toxicity of Multilink-DM1-Ac-Cit and DM1-Ac-Cit-Lys(Cys-ma-Lys(PEG16))-Tyr-OH when administered intravenously (via bolus injection).
2 injections of the same dose of either DM1-Ac-Cit ((test item 1) at 0.15, 0.68 or 1.4 mg/kg/adm) or 2 injections of the same dose of DM1-Ac-Cit-Lys(Cys-ma-Lys(PEG16))-Tyr-OH ((test item 2) at 3.5 mg/kg/adm were administered separately (on Day 1 and Day 8 (7-day interval) to CD-1® IGS mice, and the reversibility and/or delayed occurrence of any findings were evaluated during a 10-day observation period. In addition, the toxicokinetic characteristics of DM1-Ac-Cit-Lys(Cys-ma-Lys(PEG16))-Tyr-OH, DM1-Ac-Cit, and the catabolite DM1 were determined.
A control group received the Vehicle Control 1: 8% Ethanol/8% Polysorbate (Tween*) 80/PBS 84%.
The study design was as follows:
The following parameters and end points were evaluated in this study: mortality, clinical observations, body weights, food consumption, ophthalmology, clinical pathology parameters (hematology and clinical chemistry), toxicokinetic parameters, organ weights, and macroscopic and microscopic examinations.

Compound	Ratio (T1/2 Compound/T1/2 Reference) (Cathepsin B)	half-life at 10 μM (Cathepsin B) [min]	further results
CC[C@H](C)[C@@H]([C@@H](CC(=O)N1CCC[C@H]1[C@H](OC)[C@@H](C)C(=O)N[C@@H](Cc1ccccc1)C(=O)N[C@@H](CCCNC(=N)N)C(=O)N[C@@H](CCCCNC(=O)CCOCCOCCOCCOCCOCCNC(=O)CCN1C(=O)CC(SC[C@H](NC(C)=O)C(=O)O)C1=O)C(=O)N[C@@H](Cc1ccccc1)C(=O)O)OC)N(C)C(=O)[C@@H](NC(=O)[C@H](C(C)C)N(C)C)C(C)C (stereo partly drawn) [Compound 1, AF-Arg-Lys(PEG4-Mal-Cys-Ac)-Phe-OH] (NMe2Val-V[Dil][Dolaproine]FRK([PEG5-X1])F-OH; N-terminus assumed)	0.12	–	–
CC[C@H](C)[C@@H]([C@@H](CC(=O)N1CCC[C@H]1[C@H](OC)[C@@H](C)C(=O)N[C@@H](Cc1ccccc1)C(=O)N[C@@H](CCCNC(=N)N)C(=O)N[C@@H](Cc1ccccc1)C(=O)N[C@@H](CCCCNC(=O)CCOCCOCCOCCOCCNC(=O)CCN1C(=O)CC(SC[C@H](NC(C)=O)C(=O)O)C1=O)C(=O)O)OC)N(C)C(=O)[C@@H](NC(=O)[C@H](C(C)C)N(C)C)C(C)C (stereo partly drawn) [Compound 3, AF-Arg-Phe-Lys(PEG4-Mal-Cys-Ac)-OH] (NMe2Val-V[Dil][Dolaproine]FRFK([PEG4-X1])-OH; N-terminus assumed)	0.11	–	–
COc1cc2cc(c1Cl)N(C)C(=O)C[C@H](OC(=O)[C@H](C)N(C)C(=O)CCSC1CC(=O)N(CCC(=O)N[C@@H](Cc3ccccc3)C(=O)N[C@@H](CCCCN)C(=O)N[C@@H](CCCCNC(=O)CCOCCOCCOCCOCCNC(=O)CCN3C(=O)CC(SC[C@H](NC(C)=O)C(=O)O)C3=O)C(=O)N[C@@H](Cc3ccccc3)C(=O)O)C1=O)[C@]1(C)O[C@H]1[C@H](C)[C@@H]1C[C@@](O)(NC(=O)O1)[C@H](OC)/C=C/C=C(\C)C2 (stereo partly drawn) [Compound 5, DM1-Mal-Phe-Lys-Lys(PEG4-Mal-Cys-Ac)-Phe-OH] ({DM1Mal(CH2)2CO}-FKK([PEG4-X1])F-OH; N-terminus assumed)	0.05	0.6	Cat B-induced drug release, faster as compared to reference Cys-MC-Val-Cit-PABC-MMAF (Cathepsin B): 20 times
COc1cc2cc(c1Cl)N(C)C(=O)C[C@H](OC(=O)[C@H](C)N(C)C(=O)CCSC1CC(=O)N(CCC(=O)N[C@@H](Cc3ccccc3)C(=O)N[C@@H](CCCNC(N)=O)C(=O)N[C@@H](CCCCNC(=O)CCOCCOCCOCCOCCNC(=O)CCN3C(=O)CC(SC[C@H](NC(C)=O)C(=O)O)C3=O)C(=O)N[C@@H](Cc3ccccc3)C(=O)O)C1=O)[C@]1(C)O[C@H]1[C@H](C)[C@@H]1C[C@@](O)(NC(=O)O1)[C@H](OC)/C=C/C=C(\C)C2 (stereo partly drawn) [Compound 6, DM1-Mal-Phe-Cit-Lys(PEG4-Mal-Cys-Ac)-Phe-OH] ({DM1Mal(CH2)2CO}-F[Cit]K([PEG4-X1])F-OH; N-terminus assumed)	0.02	0.3	–
COc1cc2cc(c1Cl)N(C)C(=O)C[C@H](OC(=O)[C@H](C)N(C)C(=O)CCSC1CC(=O)N(CCC(=O)N[C@@H](Cc3ccccc3)C(=O)N[C@@H](CCCNC(N)=O)C(=O)N[C@@H](Cc3ccccc3)C(=O)N[C@@H](CCCCNC(=O)CCOCCOCCOCCOCCNC(=O)CCN3C(=O)CC(SC[C@H](NC(C)=O)C(=O)O)C3=O)C(=O)O)C1=O)[C@]1(C)O[C@H]1[C@H](C)[C@@H]1C[C@@](O)(NC(=O)O1)[C@H](OC)/C=C/C=C(\C)C2 (stereo partly drawn) [Compound 7, DM1-Mal-Phe-Cit-Phe-Lys(PEG4-Mal-Cys-Ac)-OH] ({DM1Mal(CH2)2CO}-F[Cit]FK([PEG4-X1])-OH; N-terminus assumed)	0.09	1.2	–
CC[C@H](C)[C@@H]([C@@H](CC(=O)N1CCC[C@H]1[C@H](OC)[C@@H](C)C(=O)N[C@@H](Cc1ccccc1)C(=O)N[C@@H](CCCNC(N)=O)C(=O)N[C@@H](CCCCNC(=O)CCOCCOCCOCCOCCNC(=O)CCN1C(=O)CC(SC[C@H](NC(C)=O)C(=O)O)C1=O)C(=O)N[C@@H](Cc1ccccc1)C(=O)O)OC)N(C)C(=O)[C@@H](NC(=O)[C@H](C(C)C)N(C)C)C(C)C (stereo partly drawn) [Compound 8, AF-Cit-Lys(PEG4-Mal-Cys-Ac)-Phe-OH] (NMe2Val-V[Dil][Dolaproine]F[Cit]K([PEG4-X1])F-OH; N-terminus assumed)	0.09	–	–
COc1cc2cc(c1Cl)N(C)C(=O)C[C@H](OC(=O)[C@H](C)N(C)C(=O)CCSC1CC(=O)N(CC3CCC(C(=O)N[C@@H](Cc4ccccc4)C(=O)N[C@@H](CCCNC(N)=O)C(=O)N[C@@H](CCCCNC(=O)CCOCCOCCOCCOCCOCCNC(=O)CN4C(=O)CC(SC[C@H](NC(C)=O)C(=O)O)C4=O)C(=O)N[C@@H](Cc4ccc(O)cc4)C(=O)O)CC3)C1=O)[C@]1(C)O[C@H]1[C@H](C)[C@@H]1C[C@@](O)(NC(=O)O1)[C@H](OC)/C=C/C=C(\C)C2 (stereo partly drawn) [Compound 11, DM1-Mcc-Phe-Cit-Lys(PEG5-Ma-Cys-Ac)-Tyr-OH]	0.005	0.06	half-life [1]: ≤ 1 min
COc1cc2cc(c1Cl)N(C)C(=O)C[C@H](OC(=O)[C@H](C)N(C)C(=O)CCSC1CC(=O)N(CC3CCC(C(=O)N[C@@H](CCCNC(N)=O)C(=O)N[C@@H](CCCCNC(=O)CCOCCOCCOCCOCCOCCNC(=O)CN4C(=O)CC(SC[C@H](NC(C)=O)C(=O)O)C4=O)C(=O)N[C@@H](Cc4ccc(O)cc4)C(=O)O)CC3)C1=O)[C@]1(C)O[C@H]1[C@H](C)[C@@H]1C[C@@](O)(NC(=O)O1)[C@H](OC)/C=C/C=C(\C)C2 (stereo partly drawn) [Compound 12, DM1-Mcc-Cit-Lys(PEG5-Ma-Cys-Ac)-Tyr-OH]	0.00004	–	half-life [1]: ≤ 1 min
DM1-Ac-Cit	–	–	tolerability ([2]; 2 i.v. bolus injections at 7-day interval at 0.15, 0.68, and 1.4 mg/kg/adm, female CD-1 mice): well tolerated; related mortalities, clinical observations or effects on body weights and food consumption [2]: no; related ophthalmic findings or changes in clinical pathology parameters [2]: no; related organ weight changes, macroscopic and microscopic findings [2]: no macroscopic and microscopic findings; no observed adverse effect level (NOAEL) ([2]; DM1-Ac-Cit, 2 i.v. bolus injections at 7-day interval, female CD-1 mice): 1.4 mg/kg/adm
DM1-Ac-Cit-Lys(Cys-ma-Lys(PEG16))-Tyr-OH	–	–	tolerability ([2]; 2 i.v. bolus injections at 7-day interval at 3.5 mg/kg/adm): well tolerated; related mortalities, clinical observations or effects on body weights and food consumption [2]: no; related ophthalmic findings or changes in clinical pathology parameters [2]: no; related organ weight changes, macroscopic and microscopic findings [2]: no macroscopic and microscopic findings
